System: 695427-040-R-J1-PDC complex spheroid viability
Assay: Anticancer human tumor 695427-040-R-J1-PDC patient-derived colon adenocarcinoma cell line growth inhibition [POLQ]
Settings: for IC50: curve of first compound; for viability, T/C: stronger effect = lower value
How it was run: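 Patient-derived tumour cells were co-cultured with HUVEC and mesenchymal stem cells as multicellular spheroids at 37 °C. They were treated with POLQ inhibitors (novobiocin, ART-558, RP6685) alone or combined with other agents. Top concentrations were at or near clinical Cmax (otherwise 10 microM; SN-38 at 1 microM), decreasing in half-log steps.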

[1] = second compound 0.0316 µM, first compound 0.0316 µM
[2] = second compound 0.0316 µM, first compound 0.1 µM
[3] = second compound 0.0316 µM, first compound 0.316 µM
[4] = second compound 0.0316 µM, first compound 1 µM
[5] = second compound 0.0316 µM, first compound 3.16 µM
[6] = second compound 0.0316 µM, first compound 10 µM
[7] = second compound 0.1 µM, first compound 0.0316 µM
[8] = second compound 0.1 µM, first compound 0.1 µM
[9] = second compound 0.1 µM, first compound 0.316 µM
[10] = second compound 0.1 µM, first compound 1 µM
[11] = second compound 0.1 µM, first compound 3.16 µM
[12] = second compound 0.1 µM, first compound 10 µM
[13] = second compound 0.316 µM, first compound 0.0316 µM
[14] = second compound 0.316 µM, first compound 0.1 µM
[15] = second compound 0.316 µM, first compound 0.316 µM
[16] = second compound 0.316 µM, first compound 1 µM
[17] = second compound 0.316 µM, first compound 3.16 µM
[18] = second compound 0.316 µM, first compound 10 µM
[19] = second compound 1 µM, first compound 0.0316 µM
[20] = second compound 1 µM, first compound 0.1 µM
[21] = second compound 1 µM, first compound 0.316 µM
[22] = second compound 1 µM, first compound 1 µM
[23] = second compound 1 µM, first compound 3.16 µM
[24] = second compound 1 µM, first compound 10 µM
[25] = second compound 3.16 µM, first compound 0.0316 µM
[26] = second compound 3.16 µM, first compound 0.1 µM
[27] = second compound 3.16 µM, first compound 0.316 µM
[28] = second compound 3.16 µM, first compound 1 µM
[29] = second compound 3.16 µM, first compound 3.16 µM
[30] = second compound 3.16 µM, first compound 10 µM
[31] = second compound 10 µM, first compound 0.0316 µM
[32] = second compound 10 µM, first compound 0.1 µM
[33] = second compound 10 µM, first compound 0.316 µM
[34] = second compound 10 µM, first compound 1 µM
[35] = second compound 10 µM, first compound 3.16 µM
[36] = second compound 10 µM, first compound 10 µM
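Note: spheroids exposed to compounds for seven days.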
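Throughout, for viability, T/C: 100% = DMSO vehicle control viability.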

COc1cc(C2c3cc4c(cc3C(OC3OC5COC(C)OC5C(O)C3O)C3COC(=O)C23)OCO4)cc(OC)c1O (stereo not drawn) + Cc1cccc(N(C)C(=O)C2C(O)CCN2c2nc(C)cc(C(F)(F)F)c2C#N)c1
IC50 (second compound 0.0316 µM): > 10 µM | IC50 (second compound 0.1 µM): > 10 µM | IC50 (second compound 0.316 µM): > 10 µM | IC50 (second compound 1 µM): > 10 µM | IC50 (second compound 3.16 µM): > 10 µM | IC50 (second compound 10 µM): > 10 µM | viability, T/C [1]: 104% | viability, T/C [2]: 89.7% | viability, T/C [3]: 107% | viability, T/C [4]: 108% | viability, T/C [5]: 92.3% | viability, T/C [6]: 81.3% | viability, T/C [7]: 96.4% | viability, T/C [8]: 92.6% | viability, T/C [9]: 102% | viability, T/C [10]: 93.4% | viability, T/C [11]: 96.1% | viability, T/C [12]: 84.7% | viability, T/C [13]: 95.7% | viability, T/C [14]: 89.8% | viability, T/C [15]: 102% | viability, T/C [16]: 89.8% | viability, T/C [17]: 93.2% | viability, T/C [18]: 81.9% | viability, T/C [19]: 96.2% | viability, T/C [20]: 98.7% | viability, T/C [21]: 89.9% | viability, T/C [22]: 87.9% | viability, T/C [23]: 91.9% | viability, T/C [24]: 77.1% | viability, T/C [25]: 92.8% | viability, T/C [26]: 102% | viability, T/C [27]: 93.4% | viability, T/C [28]: 91.5% | viability, T/C [29]: 89.6% | viability, T/C [30]: 80.8% | viability, T/C [31]: 98% | viability, T/C [32]: 80.5% | viability, T/C [33]: 90% | viability, T/C [34]: 86.8% | viability, T/C [35]: 84.3% | viability, T/C [36]: 71.1%

Nc1ccn(C2OC(CO)C(O)C2(F)F)c(=O)n1 (stereo not drawn) + Cc1cccc(N(C)C(=O)C2C(O)CCN2c2nc(C)cc(C(F)(F)F)c2C#N)c1
IC50 (second compound 0.0316 µM): > 10 µM | IC50 (second compound 0.1 µM): > 10 µM | IC50 (second compound 0.316 µM): > 10 µM | IC50 (second compound 1 µM): > 10 µM | IC50 (second compound 3.16 µM): > 10 µM | IC50 (second compound 10 µM): > 10 µM | viability, T/C [1]: 83% | viability, T/C [2]: 79.4% | viability, T/C [3]: 76.4% | viability, T/C [4]: 72.6% | viability, T/C [5]: 68% | viability, T/C [6]: 52.4% | viability, T/C [7]: 93.8% | viability, T/C [8]: 87.9% | viability, T/C [9]: 77.4% | viability, T/C [10]: 70.8% | viability, T/C [11]: 63.5% | viability, T/C [12]: 54.2% | viability, T/C [13]: 103% | viability, T/C [14]: 87.8% | viability, T/C [15]: 71.2% | viability, T/C [16]: 72.8% | viability, T/C [17]: 66.3% | viability, T/C [18]: 55.8% | viability, T/C [19]: 90.9% | viability, T/C [20]: 82.7% | viability, T/C [21]: 71% | viability, T/C [22]: 70.8% | viability, T/C [23]: 66.5% | viability, T/C [24]: 55.1% | viability, T/C [25]: 91.8% | viability, T/C [26]: 80.8% | viability, T/C [27]: 75.5% | viability, T/C [28]: 68.3% | viability, T/C [29]: 70.2% | viability, T/C [30]: 57.6% | viability, T/C [31]: 84.9% | viability, T/C [32]: 86.4% | viability, T/C [33]: 75.6% | viability, T/C [34]: 72.5% | viability, T/C [35]: 69.5% | viability, T/C [36]: 58.5%

O=C(c1cc(Cc2n[nH]c(=O)c3ccccc23)ccc1F)N1CCN(C(=O)C2CC2)CC1 + Cc1cccc(N(C)C(=O)C2C(O)CCN2c2nc(C)cc(C(F)(F)F)c2C#N)c1
IC50 (second compound 0.0316 µM): > 10 µM | IC50 (second compound 0.1 µM): > 10 µM | IC50 (second compound 0.316 µM): > 10 µM | IC50 (second compound 1 µM): > 10 µM | IC50 (second compound 3.16 µM): > 10 µM | IC50 (second compound 10 µM): > 10 µM | viability, T/C [1]: 107% | viability, T/C [2]: 98.3% | viability, T/C [3]: 101% | viability, T/C [4]: 103% | viability, T/C [5]: 104% | viability, T/C [6]: 93.9% | viability, T/C [7]: 111% | viability, T/C [8]: 101% | viability, T/C [9]: 97.9% | viability, T/C [10]: 100% | viability, T/C [11]: 113% | viability, T/C [12]: 95.3% | viability, T/C [13]: 109% | viability, T/C [14]: 101% | viability, T/C [15]: 99% | viability, T/C [16]: 93.1% | viability, T/C [17]: 98.4% | viability, T/C [18]: 96.9% | viability, T/C [19]: 98.5% | viability, T/C [20]: 94.5% | viability, T/C [21]: 97.6% | viability, T/C [22]: 92.8% | viability, T/C [23]: 101% | viability, T/C [24]: 91.2% | viability, T/C [25]: 103% | viability, T/C [26]: 94% | viability, T/C [27]: 102% | viability, T/C [28]: 91.4% | viability, T/C [29]: 103% | viability, T/C [30]: 103% | viability, T/C [31]: 89.4% | viability, T/C [32]: 88% | viability, T/C [33]: 97.9% | viability, T/C [34]: 90.4% | viability, T/C [35]: 92.3% | viability, T/C [36]: 78.9%

O=c1[nH]cc(F)c(=O)[nH]1 + Cc1cccc(N(C)C(=O)C2C(O)CCN2c2nc(C)cc(C(F)(F)F)c2C#N)c1
IC50 (second compound 0.0316 µM): > 10 µM | IC50 (second compound 0.1 µM): > 10 µM | IC50 (second compound 0.316 µM): > 10 µM | IC50 (second compound 1 µM): > 10 µM | IC50 (second compound 3.16 µM): > 10 µM | IC50 (second compound 10 µM): > 10 µM | viability, T/C [1]: 105% | viability, T/C [2]: 94.5% | viability, T/C [3]: 95.2% | viability, T/C [4]: 98.1% | viability, T/C [5]: 106% | viability, T/C [6]: 98.2% | viability, T/C [7]: 106% | viability, T/C [8]: 102% | viability, T/C [9]: 102% | viability, T/C [10]: 101% | viability, T/C [11]: 109% | viability, T/C [12]: 97% | viability, T/C [13]: 112% | viability, T/C [14]: 102% | viability, T/C [15]: 99.1% | viability, T/C [16]: 104% | viability, T/C [17]: 101% | viability, T/C [18]: 99.5% | viability, T/C [19]: 105% | viability, T/C [20]: 100% | viability, T/C [21]: 108% | viability, T/C [22]: 101% | viability, T/C [23]: 93% | viability, T/C [24]: 88.4% | viability, T/C [25]: 96% | viability, T/C [26]: 103% | viability, T/C [27]: 101% | viability, T/C [28]: 97.4% | viability, T/C [29]: 101% | viability, T/C [30]: 103% | viability, T/C [31]: 90.6% | viability, T/C [32]: 94.8% | viability, T/C [33]: 87.5% | viability, T/C [34]: 96.3% | viability, T/C [35]: 92.8% | viability, T/C [36]: 84.8%

Source: PubChem BioAssay AID1963840 (Molecular Pharmacology Branch, DTP, NCI, 2024)
